Molecular target: T1, GST-GK, derived from human liver GK (Homo sapiens, UniProt P35557)
T1 sequence (P35557 1-466 isoform P35557-2): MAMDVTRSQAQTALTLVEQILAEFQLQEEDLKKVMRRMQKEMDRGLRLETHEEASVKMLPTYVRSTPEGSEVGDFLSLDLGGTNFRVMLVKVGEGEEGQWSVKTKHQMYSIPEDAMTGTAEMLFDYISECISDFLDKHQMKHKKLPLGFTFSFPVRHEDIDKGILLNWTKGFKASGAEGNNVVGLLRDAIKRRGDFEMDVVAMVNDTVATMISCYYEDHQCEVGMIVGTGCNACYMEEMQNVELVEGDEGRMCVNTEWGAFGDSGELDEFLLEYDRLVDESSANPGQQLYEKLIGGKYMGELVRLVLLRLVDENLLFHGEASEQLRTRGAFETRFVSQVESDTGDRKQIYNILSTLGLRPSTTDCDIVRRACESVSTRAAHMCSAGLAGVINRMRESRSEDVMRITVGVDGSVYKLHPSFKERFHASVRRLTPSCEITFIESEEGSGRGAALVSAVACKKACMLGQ
Assay: In vitro GK activity: G6P production by GST-GK coupled to NADPH generation with G6PDH
Assay type: biochemical
Settings: 5 mM D-Glc, 30° C., OD 340 nm over 10 min
Method: Using a protocol similar to that described in WO2000/58293, GK activity may be assayed by coupling the production of G6P by GST-GK to the generation of NADPH with G6PDH as the coupling enzyme.
The GK assay is performed at 30° C. in a flat bottom 96-well assay plate from Costar with a final incubation volume of 100 μL. The assay buffer contains: 25 mM Hepes buffer (pH 7.4), 12.5 mM KCl, 5 mM D-Glc, 5 mM ATP, 6.25 mM NADP, 25 mM MgCl2, 1 mM dithiothreitol, test compound or 5% DMSO, 3.0 unit/mL G6PDH, and 0.4 μL/mL GST-GK, derived from human liver GK. ATP, G6PDH, and NADP may be purchased from Roche Diagnostics. The other reagents are >98% pure and may be purchased from Kanto Chemicals. The test compounds are dissolved in DMSO, before being added to the assay buffer without ATP. This mix is preincubated in the temperature controlled chamber of a SPECTRAmax 250 microplate spectrophotometer (Molecular Devices Corporation, Sunnyvale, Calif.) for 10 min, then the reaction started by the addition of 10 μL ATP solution.
After starting the reaction, the increase in optical density (OD) at 340 nm is monitored over a 10 min incubation period as a measure of GK activity. […] The compound concentrations that produced a 50% increase in GK activity (i.e. FA1.5) are calculated. […]

maximum activation of GK: greater than 4 fold
EC50 (read-out: EC50 (concentration of test compound which produces 50% activation)): < 0.5 µM
SMILES: O=C1CC[C@H](C[C@@H](C(=O)Nc2ncc(F)s2)c2ccc(S(=O)(=O)C3CC3)cc2)C1 [Example 7, 2(R)-2-(4-Cyclopropanesulfonylphenyl)-N-(5-fluorothiazol-2-yl)-3-((R)-3-oxocyclopentyl)propionamide]
